Calls of active or inactive are those of the source. No cut-off for these calls is given here.

The inhibition is the share of the control response that was lost under treatment. A lower inhibition goes with little suppression.

The experiment concerns Mycobacterium tuberculosis. The experiment in a line: Antitubercular activity against Mycobacterium tuberculosis H37Rv at 6.25 ug/ml by BACTEC 460 radiometric assay. In kind it is functional.

Take `CCCCCCCCCCCC(=O)O[C@H]1[C@H](O[C@@H]2[C@@H](O)[C@H]3OC(=O)CCCCCCCCC[C@H](CCCCC)O[C@@H]4O[C@H](C)[C@H](O)[C@H](O)[C@H]4O[C@@H]3O[C@H]2C)O[C@@H](C)[C@H](O[C@@H]2O[C@@H](C)[C@H](OC(=O)CC)[C@@H](O)[C@H]2OC(=O)/C=C/c2ccccc2)[C@H]1O[C@@H]1O[C@H](CO)[C@@H](O)[C@H](O)[C@H]1O`: testing at 6.25 µg/mL gave an inhibition of 13%. For the compound `CCCCC[C@@H](CCCCCCCCCC(=O)O)O[C@@H]1O[C@H](C)[C@H](O)[C@H](O)[C@H]1O[C@@H]1O[C@@H](C)[C@H](O[C@@H]2O[C@@H](C)[C@H](O[C@@H]3O[C@@H](C)[C@H](O)[C@@H](O)[C@H]3O)[C@@H](O)[C@H]2O[C@@H]2O[C@H](CO)[C@@H](O)[C@H](O)[C@H]2O)[C@@H](O)[C@H]1O`, the result was inactive.

`CCCCCCCCCCCC(=O)O[C@H]1[C@H](O[C@@H]2[C@@H](O)[C@H]3OC(=O)CCCCCCCCC[C@H](CCCCC)O[C@@H]4O[C@H](C)[C@H](O)[C@H](O)[C@H]4O[C@@H]3O[C@H]2C)O[C@@H](C)[C@H](O[C@@H]2O[C@@H](C)[C@H](OC(=O)CC)[C@@H](O)[C@H]2O)[C@H]1O[C@@H]1O[C@H](CO)[C@@H](O)[C@H](O)[C@H]1O`: the result was inactive.

In the case of `CCCCCCCCCCCC(=O)O[C@H]1[C@H](O[C@@H]2[C@@H](OC)[C@H]3OC(=O)CCCCCCCCC[C@H](CCCCC)O[C@@H]4O[C@H](C)[C@H](OC)[C@H](OC)[C@H]4O[C@@H]3O[C@H]2C)O[C@@H](C)[C@H](O[C@@H]2O[C@@H](C)[C@H](OC(=O)CC)[C@@H](OC)[C@H]2OC(=O)/C=C/c2ccccc2)[C@H]1O[C@@H]1O[C@H](COC)[C@@H](OC)[C@H](OC)[C@H]1OC`, the outcome was inactive.

(Values after ChEMBL document CHEMBL1150699, “Characterization of an anti-tuberculosis resin glycoside from the prairie medicinal plant Ipomoea leptophylla” (2003).)
